Laboratory results: ChEMBL document CHEMBL5107949, “Design, synthesis, and antibacterial activity of N-(trifluoromethyl)phenyl substituted pyrazole derivatives” (RSC Med Chem, 2021)
Values after ≈ are worked out from the molar mass of the structure shown.

Columns and labels:
[1] = Cytotoxicity against human HEK293 cells reduction in cell viability incubated for 24 hrs by resazurin cell viability assay; assay type: toxicity, cell-based
Staphylococcus aureus [2] = experiment: Antibacterial activity against antibiotic resistant Staphylococcus aureus BAA-2312 assessed as inhibition of bacterial growth by CLSI protocol based broth microdilution method; assay type: functional
Staphylococcus aureus [3] = experiment: Antibacterial activity against antibiotic resistant Staphylococcus aureus ATCC 33592 assessed as inhibition of bacterial growth by CLSI protocol based broth microdilution method; assay type: functional
Staphylococcus aureus [4] = experiment: Antibacterial activity against antibiotic resistant Staphylococcus aureus ATCC 700699 assessed as inhibition of bacterial growth by CLSI protocol based broth microdilution method; assay type: functional
Staphylococcus aureus [5] = experiment: Antibacterial activity against antibiotic resistant Staphylococcus aureus ATCC 33591 assessed as inhibition of bacterial growth by CLSI protocol based broth microdilution method; assay type: functional
[6] = system: Staphylococcus epidermidis; experiment: Antibacterial activity against antibiotic resistant Staphylococcus epidermidis ATCC 700296 assessed as inhibition of bacterial growth by CLSI protocol based broth microdilution method; assay type: functional
Bacillus subtilis = experiment: Antibacterial activity against antibiotic resistant Bacillus subtilis ATCC 6623 assessed as inhibition of bacterial growth by CLSI protocol based broth microdilution method; assay type: functional
Enterococcus faecium = experiment: Antibacterial activity against vancomycin resistant Enterococcus faecium ATCC 700221 assessed as inhibition of bacterial growth by CLSI protocol based broth microdilution method; assay type: functional
Enterococcus faecalis = experiment: Antibacterial activity against antibiotic susceptible Enterococcus faecalis ATCC 29212 assessed as inhibition of bacterial growth by CLSI protocol based broth microdilution method; assay type: functional
Staphylococcus aureus [7] = experiment: Antibacterial activity against antibiotic susceptible Staphylococcus aureus ATCC 25923 assessed as inhibition of bacterial growth by CLSI protocol based broth microdilution method; assay type: functional

Row | Compound | IC50 at 24 h [1] [µg/mL] | MIC (Staphylococcus aureus [2]) [µg/mL] | MIC (Staphylococcus aureus [3]) [µg/mL] | MIC (Staphylococcus aureus [4]) [µg/mL] | MIC (Staphylococcus aureus [5]) [µg/mL] | MIC [6] [µg/mL] | MIC (Bacillus subtilis) [µg/mL] | MIC (Enterococcus faecium) [µg/mL] | MIC (Enterococcus faecalis) [µg/mL] | MIC (Staphylococcus aureus [7]) [µg/mL]
1 | Cc1ccc(NCc2cn(-c3ccc(C(F)(F)F)cc3)nc2-c2ccc(C(=O)O)cc2)cc1Cl | > 12 | 3.12 (≈ 6.42 µM) | 3.12 (≈ 6.42 µM) | 1.56 (≈ 3.21 µM) | 6.25 (≈ 12.9 µM) | 6.25 (≈ 12.9 µM) | 1.56 (≈ 3.21 µM) | 3.12 (≈ 6.42 µM) | 6.25 (≈ 12.9 µM) | 3.12 (≈ 6.42 µM)
2 | O=C(O)c1ccc(-c2nn(-c3ccc(C(F)(F)F)cc3)cc2CNc2cccc(Br)c2)cc1 | – | 6.25 (≈ 12.1 µM) | 6.25 (≈ 12.1 µM) | 3.12 (≈ 6.04 µM) | 3.12 (≈ 6.04 µM) | 12.5 (≈ 24.2 µM) | 6.25 (≈ 12.1 µM) | 6.25 (≈ 12.1 µM) | 12.5 (≈ 24.2 µM) | 3.12 (≈ 6.04 µM)
3 | CSc1ccc(NCc2cn(-c3ccc(C(F)(F)F)cc3)nc2-c2ccc(C(=O)O)cc2)cc1 | – | 25 (≈ 51.7 µM) | 25 (≈ 51.7 µM) | 12.5 (≈ 25.9 µM) | 25 (≈ 51.7 µM) | 50 (≈ 103 µM) | 25 (≈ 51.7 µM) | 12.5 (≈ 25.9 µM) | 25 (≈ 51.7 µM) | 12.5 (≈ 25.9 µM)
4 | CC(C)(C)c1ccc(NCc2cn(-c3ccc(C(F)(F)F)cc3)nc2-c2ccc(C(=O)O)cc2)cc1 | 8 (≈ 16.2 µM) | 3.12 (≈ 6.32 µM) | 1.56 (≈ 3.16 µM) | 1.56 (≈ 3.16 µM) | 3.12 (≈ 6.32 µM) | 3.12 (≈ 6.32 µM) | 1.56 (≈ 3.16 µM) | 1.56 (≈ 3.16 µM) | 3.12 (≈ 6.32 µM) | 1.56 (≈ 3.16 µM)
5 | O=C(O)c1ccc(-c2nn(-c3ccc(C(F)(F)F)cc3)cc2CNc2ccccc2)cc1 | – | 25 (≈ 57.2 µM) | 25 (≈ 57.2 µM) | 25 (≈ 57.2 µM) | 50 (≈ 114 µM) | 25 (≈ 57.2 µM) | 25 (≈ 57.2 µM) | 25 (≈ 57.2 µM) | – | 25 (≈ 57.2 µM)
6 | O=C(O)c1ccc(-c2nn(-c3ccc(C(F)(F)F)cc3)cc2CNc2ccc(Cl)c(Cl)c2)cc1 | > 12 | 1.56 (≈ 3.08 µM) | 1.56 (≈ 3.08 µM) | 0.78 (≈ 1.54 µM) | 1.56 (≈ 3.08 µM) | 3.12 (≈ 6.16 µM) | 0.39 (≈ 0.77 µM) | 1.56 (≈ 3.08 µM) | 3.12 (≈ 6.16 µM) | 1.56 (≈ 3.08 µM)
7 | O=C(O)c1ccc(-c2nn(-c3ccc(C(F)(F)F)cc3)cc2CNc2ccc(Cl)cc2)cc1 | – | 12.5 (≈ 26.5 µM) | 6.25 (≈ 13.2 µM) | 6.25 (≈ 13.2 µM) | 6.25 (≈ 13.2 µM) | 12.5 (≈ 26.5 µM) | 6.25 (≈ 13.2 µM) | 6.25 (≈ 13.2 µM) | 12.5 (≈ 26.5 µM) | 6.25 (≈ 13.2 µM)
8 | Cc1cc(NCc2cn(-c3ccc(C(F)(F)F)cc3)nc2-c2ccc(C(=O)O)cc2)ccc1F | – | 25 (≈ 53.3 µM) | 6.25 (≈ 13.3 µM) | 6.25 (≈ 13.3 µM) | 25 (≈ 53.3 µM) | 25 (≈ 53.3 µM) | 12.5 (≈ 26.6 µM) | 12.5 (≈ 26.6 µM) | 25 (≈ 53.3 µM) | 12.5 (≈ 26.6 µM)
9 | CC(C)c1ccc(NCc2cn(-c3ccc(C(F)(F)F)cc3)nc2-c2ccc(C(=O)O)cc2)cc1 | – | 6.25 (≈ 13 µM) | 3.12 (≈ 6.51 µM) | 3.12 (≈ 6.51 µM) | 12.5 (≈ 26.1 µM) | 12.5 (≈ 26.1 µM) | 3.12 (≈ 6.51 µM) | 3.12 (≈ 6.51 µM) | 6.25 (≈ 13 µM) | 3.12 (≈ 6.51 µM)
10 | O=C(O)c1ccc(-c2nn(-c3ccc(C(F)(F)F)cc3)cc2CNc2ccc(Br)cc2)cc1 | – | 6.25 (≈ 12.1 µM) | 3.12 (≈ 6.04 µM) | 3.12 (≈ 6.04 µM) | 6.25 (≈ 12.1 µM) | 12.5 (≈ 24.2 µM) | 3.12 (≈ 6.04 µM) | 6.25 (≈ 12.1 µM) | 6.25 (≈ 12.1 µM) | 6.25 (≈ 12.1 µM)
11 | O=C(O)c1ccc(-c2nn(-c3ccc(C(F)(F)F)cc3)cc2CNc2ccc(C(F)(F)F)cc2)cc1 | – | 12.5 (≈ 24.7 µM) | 6.25 (≈ 12.4 µM) | 3.12 (≈ 6.17 µM) | 12.5 (≈ 24.7 µM) | 12.5 (≈ 24.7 µM) | 6.25 (≈ 12.4 µM) | 12.5 (≈ 24.7 µM) | 25 (≈ 49.5 µM) | 12.5 (≈ 24.7 µM)
12 | O=C(O)c1ccc(-c2nn(-c3ccc(C(F)(F)F)cc3)cc2CNc2cccc(F)c2)cc1 | – | 25 (≈ 54.9 µM) | 25 (≈ 54.9 µM) | 12.5 (≈ 27.4 µM) | 25 (≈ 54.9 µM) | 25 (≈ 54.9 µM) | 12.5 (≈ 27.4 µM) | 12.5 (≈ 27.4 µM) | 25 (≈ 54.9 µM) | 25 (≈ 54.9 µM)
13 | O=C(O)c1ccc(-c2nn(-c3ccc(C(F)(F)F)cc3)cc2CNc2ccc(F)c([N+](=O)[O-])c2)cc1 | – | 25 (≈ 50 µM) | 12.5 (≈ 25 µM) | 6.25 (≈ 12.5 µM) | 25 (≈ 50 µM) | 25 (≈ 50 µM) | 12.5 (≈ 25 µM) | – | – | 12.5 (≈ 25 µM)
14 | O=C(O)c1ccc(-c2nn(-c3ccc(C(F)(F)F)cc3)cc2CNc2ccc(F)c(Cl)c2)cc1 | – | 6.25 (≈ 12.8 µM) | 3.12 (≈ 6.37 µM) | 3.12 (≈ 6.37 µM) | 12.5 (≈ 25.5 µM) | 12.5 (≈ 25.5 µM) | 3.12 (≈ 6.37 µM) | 6.25 (≈ 12.8 µM) | 12.5 (≈ 25.5 µM) | 3.12 (≈ 6.37 µM)
15 | COc1ccc(NCc2cn(-c3ccc(C(F)(F)F)cc3)nc2-c2ccc(C(=O)O)cc2)cc1C(F)(F)F | – | 12.5 (≈ 23.3 µM) | 12.5 (≈ 23.3 µM) | 6.25 (≈ 11.7 µM) | 25 (≈ 46.7 µM) | 25 (≈ 46.7 µM) | 6.25 (≈ 11.7 µM) | 12.5 (≈ 23.3 µM) | 25 (≈ 46.7 µM) | 12.5 (≈ 23.3 µM)
16 | COc1ccc(NCc2cn(-c3ccc(C(F)(F)F)cc3)nc2-c2ccc(C(=O)O)cc2)cc1 | – | – | 25 (≈ 53.5 µM) | 25 (≈ 53.5 µM) | – | – | 25 (≈ 53.5 µM) | – | – | 50 (≈ 107 µM)
17 | O=C(O)c1ccc(-c2nn(-c3ccc(C(F)(F)F)cc3)cc2CNc2ccc([N+](=O)[O-])cc2)cc1 | – | 25 (≈ 51.8 µM) | 12.5 (≈ 25.9 µM) | 12.5 (≈ 25.9 µM) | 25 (≈ 51.8 µM) | 25 (≈ 51.8 µM) | 12.5 (≈ 25.9 µM) | 25 (≈ 51.8 µM) | 25 (≈ 51.8 µM) | 25 (≈ 51.8 µM)
18 | O=C(O)c1ccc(-c2nn(-c3ccc(C(F)(F)F)cc3)cc2CNc2cccc(Cl)c2F)cc1 | – | 6.25 (≈ 12.8 µM) | 3.12 (≈ 6.37 µM) | 3.12 (≈ 6.37 µM) | 6.25 (≈ 12.8 µM) | 12.5 (≈ 25.5 µM) | 1.56 (≈ 3.18 µM) | 6.25 (≈ 12.8 µM) | 12.5 (≈ 25.5 µM) | 3.12 (≈ 6.37 µM)
19 | O=C(O)c1ccc(-c2nn(-c3ccc(C(F)(F)F)cc3)cc2CNc2ccc(F)c(F)c2)cc1 | – | 25 (≈ 52.8 µM) | 6.25 (≈ 13.2 µM) | 6.25 (≈ 13.2 µM) | 25 (≈ 52.8 µM) | 25 (≈ 52.8 µM) | 12.5 (≈ 26.4 µM) | 12.5 (≈ 26.4 µM) | 25 (≈ 52.8 µM) | 12.5 (≈ 26.4 µM)
20 | O=C(O)c1ccc(-c2nn(-c3ccc(C(F)(F)F)cc3)cc2CNc2ccc(F)cc2)cc1 | – | 25 (≈ 54.9 µM) | 25 (≈ 54.9 µM) | 12.5 (≈ 27.4 µM) | 25 (≈ 54.9 µM) | 50 (≈ 110 µM) | 25 (≈ 54.9 µM) | 25 (≈ 54.9 µM) | – | 25 (≈ 54.9 µM)
21 | CN1CCN(c2ccc(NCc3cn(-c4ccc(C(F)(F)F)cc4)nc3-c3ccc(C(=O)O)cc3)cc2C(F)(F)F)CC1 | – | 25 (≈ 41.4 µM) | 12.5 (≈ 20.7 µM) | 12.5 (≈ 20.7 µM) | 50 (≈ 82.8 µM) | – | 25 (≈ 41.4 µM) | 25 (≈ 41.4 µM) | 25 (≈ 41.4 µM) | 25 (≈ 41.4 µM)
